Data published in patent US10053468B2, “Heterocyclic compound” (TAKEDA PHARMACEUTICAL COMPANY LIMITED, priority 2013, dated 2018).
Where two headings read alike, the source gives them in different places.

Assays:
[1] = target: T1, RORγt (Homo sapiens, UniProt P51449); test: Cofactor recruitment test (Alpha Screen, biotinylated SRC-1 peptide); format: biochemical; settings: read-out: Signal value inhibitory rate at test compound 1 μM (%)
T1 sequence (P51449 1-497 isoform P51449-2): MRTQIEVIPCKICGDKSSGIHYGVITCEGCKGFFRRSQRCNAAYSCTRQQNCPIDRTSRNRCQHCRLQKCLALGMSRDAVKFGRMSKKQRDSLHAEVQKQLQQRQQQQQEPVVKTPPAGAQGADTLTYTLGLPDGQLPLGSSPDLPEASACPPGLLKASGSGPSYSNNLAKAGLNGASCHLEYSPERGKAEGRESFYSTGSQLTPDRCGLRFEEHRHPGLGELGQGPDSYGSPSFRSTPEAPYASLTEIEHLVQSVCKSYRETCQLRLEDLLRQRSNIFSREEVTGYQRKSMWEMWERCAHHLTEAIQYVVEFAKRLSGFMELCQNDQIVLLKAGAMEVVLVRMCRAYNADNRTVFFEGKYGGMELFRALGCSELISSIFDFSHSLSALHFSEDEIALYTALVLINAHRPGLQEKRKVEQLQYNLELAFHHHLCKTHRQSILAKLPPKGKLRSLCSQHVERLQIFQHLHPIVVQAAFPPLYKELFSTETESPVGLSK
Experimental: Cofactor Recruitment Test
Cofactor recruitment test was performed by Alpha Screen (Histidine Detection Kit, PerkinElmer) method. First, a test compound was diluted with an assay buffer (50 mM Tris-HCl (pH 7.5), 50 mM KCl, 1 mM DTT, 0.1% BSA) and added to a 384 well plate by 5 μL. […] The mixture was stood in a dark place for 1 hr, and the signal value was measured by Envision (PerkinElmer).

[2] = target: T1, RORγt; test: RORγt binding test using fluorescent-labeled cholesterol (TR-FRET); settings: read-out: Binding inhibitory rate of fluorescent-labeled cholesterol to RORγt at test compound 1 μM (%)
Experimental: RORγt Binding Test Using Fluorescent-labeled Cholesterol
The binding activity of the test compound to RORγt was measured by a time resolved fluorescence resonance energy transfer method (TR-FRET) utilizing histidine-tagged RORγt, fluorescent-labeled cholesterol (BODIPY-cholesterol, AVIVA), and terbium-labeled anti-histidine tag antibody (Invitrogen). First, a test compound diluted with an assay buffer (20 mM Tris-HCl (pH 7.5), 100 mM NaCl, 1 mM DTT, 0.1% BSA) was added to a 384 well plate by 3 μL. Then, RORγt diluted with an assay buffer to 240 nM was added by 3 μL, after which fluorescent-labeled cholesterol diluted with the assay buffer to 12 μM was added by 3 μL, and the mixture was stood at room temperature for 20 min. Thereafter, a terbium-labeled anti-histidine tag antibody diluted with the assay buffer to 8 nM was added by 3 μL. The mixture was stood at room temperature for 20 min, and fluorescence intensity (excitation wavelength 320 nm, fluorescence wavelength 520 nm, delay time 100 microseconds) was measured by Envision (PerkinElmer).

[3] = target: T1, RORγt; test: Jurkat reporter test (human IL-17 ROR response element luciferase, RORγt vector); format: cell-based; settings: read-out: Luminescence level inhibitory rate at test compound 3 μM (%)
Experimental: The Jurkat cells used for the reporter test were cultured in a culture medium (RPMI (Invitrogen), 10% FCS (AusGeneX), 100 U/mL penicillin, 100 μg/mL streptomycin). On the day of the test, 4×10^7 cells were recovered by a centrifugal operation (1000 rpm, 5 min.) and suspended in PBS (phosphate buffered saline) (Invitrogen). Thereafter, the cells were recovered again by a centrifugal operation, and suspended in 2 mL of R buffer (NEON transfection kit, Invitrogen). […] Gene transfer was performed by Electroporation apparatus (NEON, Invitrogen) under the conditions of pulse voltage 1350 V, interval 10 milliseconds, number of times 3. The cells after gene transfer were suspended in 40 mL of a reaction medium (RPMI, 10% Lipid reduced FCS (HyClone), 10 mM HEPES (pH 7.5), 100 U/mL penicillin, 100 μg/mL streptomycin, 5 μM lovastatin), and plated in a 96 well plate by 90 μL. A test compound diluted with the reaction medium was added by 10 μL, and the cells were cultured overnight in an incubator. Bright-Glo (Promega) was added by 100 μL, and the mixture was stirred at room temperature for 10 min, and the luminescence level was measured by Envision (PerkinElmer).

[4] = test compound 3 μM, Jurkat cells

Structure (SMILES) | inhibition at 1 µM [1] [%] | inhibition at 1 µM [2] [%] | inhibition at 3 µM [3, 4] [%] | inhibition at 3 µM ([3]; Jurkat) [%]
COc1ccc2c(c1)CCN(C(=O)Cc1ccc(OC)nc1)[C@H]2C(=O)Nc1ccc(C(C)(C)C)c(F)c1 [Example 32, (1R)-N-(4-tert-butyl-3-fluorophenyl)-6-methoxy-2-((6-methoxypyridin-3-yl)acetyl)-1,2,3,4-tetrahydroisoquinoline-1-carboxamide] | 89.9 | 101 | 103 | –
COc1ccc2c(n1)CCN(C(=O)c1cc(O)no1)[C@H]2C(=O)Nc1ccc(C(C)(C)C)c(F)c1 [Example 77, (5R)-N-(4-tert-butyl-3-fluorophenyl)-6-((3-hydroxy-1,2-oxazol-5-yl)carbonyl)-2-methoxy-5,6,7,8-tetrahydro-1,6-naphthyridine-5-carboxamide] | 91 | 101 | 100 | –
COc1ccc2c(c1)CCN(C(=O)CC#N)[C@H]2C(=O)Nc1cc(F)c(C(C)(C)C)c(F)c1 [Example 84, (1R)-N-(4-tert-butyl-3,5-difluorophenyl)-2-(cyanoacetyl)-6-methoxy-1,2,3,4-tetrahydroisoquinoline-1-carboxamide] | 92 | 101 | 100 | –
COc1ccc2c(c1)CCN(C(=O)Cc1cc(O)no1)[C@H]2C(=O)Nc1cc(F)c([Si](C)(C)C)c(F)c1 [Example 85, (1R)-N-(3,5-difluoro-4-(trimethylsilyl)phenyl)-2-((3-hydroxy-1,2-oxazol-5-yl)acetyl)-6-methoxy-1,2,3,4-tetrahydroisoquinoline-1-carboxamide] | 99 | 103 | – | 101
CC[Si](C)(C)c1c(F)cc(NC(=O)[C@H]2c3ccc(OC)cc3CCN2C(=O)CCC(=O)O)cc1F [Example 87, 4-((1R)-1-((4-(ethyl (dimethyl)silyl)-3,5-difluorophenyl)carbamoyl)-6-methoxy-3,4-dihydroisoquinolin-2 (1H)-yl)-4-oxobutanoic acid] | 98 | 102 | – | 102
CC[Si](C)(C)c1c(F)cc(NC(=O)[C@H]2c3ccc(OC)nc3CCN2C(=O)Cc2cc(O)no2)cc1F [Example 113, (5R)-N-(4-(ethyl (dimethyl)silyl)-3,5-difluorophenyl)-6-((3-hydroxy-1,2-oxazol-5-yl)acetyl)-2-methoxy-5,6,7,8-tetrahydro-1,6-naphthyridine-5-carboxamide] | 99 | 104 | – | 101

Second part, led by results:

inhibition at 1 µM [1] [%] | inhibition at 1 µM [2] [%] | inhibition at 3 µM [3, 4] [%] | Structure (SMILES) | inhibition at 3 µM ([3]; Jurkat) [%]
82 | 102 | 99.8 | COc1ccc2c(c1)CCN(C(=O)CCO)[C@H]2C(=O)Nc1ccc(C(C)(C)C)c(F)c1 [Example 30, (1R)-N-(4-tert-butyl-3-fluorophenyl)-2-(3-hydroxypropanoyl)-6-methoxy-1,2,3,4-tetrahydroisoquinoline-1-carboxamide] | –
98.3 | 103 | 98.6 | CCOC(=O)C(C)(C)c1ccc(NC(=O)C2c3ccc(OC)cc3CCN2C(=O)c2cc(O)no2)cc1F (stereo not drawn) [Example 37, ethyl 2-(2-fluoro-4-(((2-((3-hydroxy-1,2-oxazol-5-yl)carbonyl)-6-methoxy-1,2,3,4-tetrahydroisoquinolin-1-yl)carbonyl)amino)phenyl)-2-methylpropanoate] | –
81.9 | 100 | 101 | CCOc1ccc2c(c1)CCN(C(=O)Cc1cc(O)no1)C2C(=O)Nc1ccc(C(C)(C)C)c(F)c1 (stereo not drawn) [Example 54, N-(4-tert-butyl-3-fluorophenyl)-6-ethoxy-2-((3-hydroxy-1,2-oxazol-5-yl)acetyl)-1,2,3,4-tetrahydroisoquinoline-1-carboxamide] | –
73.4 | 102 | 100 | CCOc1ccc2c(c1)CCN(C(=O)Cc1cc(O)no1)C2C(=O)Nc1cc(F)c2c(c1)CCC2(C)C (stereo not drawn) [Example 55, 6-ethoxy-N-(7-fluoro-1,1-dimethyl-2,3-dihydro-1H-inden-5-yl)-2-((3-hydroxy-1,2-oxazol-5-yl)acetyl)-1,2,3,4-tetrahydroisoquinoline-1-carboxamide] | –
